We go through 13 molecules from PubChem BioAssay AID270 (DTP/NCI, 2004).

The test system of this experiment is BDF1 mice, s.c. Lewis lung carcinoma, T/C %. Put plainly: NCI In Vivo Anticancer Drug Screen. Data for tumor model Lewis Lung Carcinoma (subcutaneous) in B6D2F1 (BDF1) mice. The essentials: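 Tumor-bearing mice were treated with test compound, and either survival or tumor size was recorded. Values are the treated-group measurement divided by that of the vehicle-treated control group.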

Where [1] appears, read: endpoint: mean tumor weight, dose: 50.0 mg/kg/injection, schedule: Q01DX011 (ip), vehicle: other, higher = larger tumour.

The structures appear in SMILES notation. Values joined by “and” are separate entries in the source; they are usually repeats but may differ in a detail not shown here. Identical values can stand only once. Inconclusive results are not listed.

In the case of `Nc1ncn(C2CC(O)C(CO)O2)c(=O)n1` (centres undefined), the T/C reads like this: (endpoint: median survival time, dose: 0.05 mg/kg/injection, schedule: Q01DX009 (ip), vehicle: saline, higher = longer survival) 102 % of control; (endpoint: median survival time, dose: 0.1 mg/kg/injection, schedule: Q01DX009 (ip), vehicle: saline, higher = longer survival) 102 % of control and 109 % of control; (endpoint: median survival time, dose: 0.2 mg/kg/injection, schedule: Q01DX009 (ip), vehicle: saline, higher = longer survival) 109 % of control and 112 % of control; (endpoint: median survival time, dose: 0.8 mg/kg/injection, schedule: Q01DX009 (ip), vehicle: Klucel (hydroxypropylcellulose) (HPC), higher = longer survival) 167 % of control.

`O=C1C=CC(=Nc2ccc(O)c3ncccc23)c2cccnc21`: the T/C is 94 % of control (endpoint: mean tumor weight, dose: 12.5 mg/kg/injection, schedule: Q01DX011 (ip), vehicle: saline, higher = larger tumour); 49 % of control (endpoint: mean tumor weight, dose: 25.0 mg/kg/injection, schedule: Q01DX011 (ip), vehicle: saline, higher = larger tumour); 26 % of control (endpoint: mean tumor weight, dose: 50.0 mg/kg/injection, schedule: Q01DX011 (ip), vehicle: saline, higher = larger tumour).

For the molecule `CCCCCC(=O)O[C@]1(C(C)=O)CC[C@H]2[C@@H]3CCC4=CC(=O)CC[C@]4(C)[C@H]3CC[C@@]21C`, the T/C reads like this: (endpoint: mean tumor weight, dose: 375.0 mg/kg/injection, schedule: Q01DX011 (sc), vehicle: steriod suspending solution, higher = larger tumour) 89 % of control and 99 % of control; (endpoint: mean tumor weight, dose: 750.0 mg/kg/injection, schedule: Q01DX011 (sc), vehicle: steriod suspending solution, higher = larger tumour) 91 % of control and 92 % of control.

On to `O=P(N1CC1)(N1CC1)N1CC1`, for which the T/C (endpoint: mean tumor weight, dose: 0.2 mg/kg/injection, schedule: Q01DX011 (ip), vehicle: other, higher = larger tumour) was 90 % of control; the T/C (endpoint: mean tumor weight, dose: 0.4 mg/kg/injection, schedule: Q01DX011 (ip), vehicle: other, higher = larger tumour) is 62 % of control; the T/C (endpoint: mean tumor weight, dose: 0.8 mg/kg/injection, schedule: Q01DX011 (ip), vehicle: other, higher = larger tumour) is 58 % of control and 69 % of control; the T/C (endpoint: mean tumor weight, dose: 1.3 mg/kg/injection, schedule: Q01DX011 (ip), vehicle: other, higher = larger tumour) was 37 % of control and 45 % of control and 62 % of control; the T/C (endpoint: mean tumor weight, dose: 2.0 mg/kg/injection, schedule: Q01DX011 (ip), vehicle: other, higher = larger tumour) is 70 % of control.

Take `Nc1n[nH]c(N)n1`: the T/C was 113 % of control (endpoint: median survival time, dose: 100.0 mg/kg/injection, schedule: Q01DX009 (ip), vehicle: saline with Tween-80, higher = longer survival); 102 % of control (endpoint: median survival time, dose: 200.0 mg/kg/injection, schedule: Q01DX009 (ip), vehicle: saline with Tween-80, higher = longer survival); 95 % of control (endpoint: median survival time, dose: 400.0 mg/kg/injection, schedule: Q01DX009 (ip), vehicle: saline with Tween-80, higher = longer survival); 110 % of control (endpoint: median survival time, dose: 800.0 mg/kg/injection, schedule: Q01DX009 (ip), vehicle: saline with Tween-80, higher = longer survival); 100 % of control (endpoint: median tumor weight (est.), dose: 100.0 mg/kg/injection, schedule: Q01DX009 (ip), vehicle: saline with Tween-80, higher = larger tumour); 103 % of control (endpoint: median tumor weight (est.), dose: 200.0 mg/kg/injection, schedule: Q01DX009 (ip), vehicle: saline with Tween-80, higher = larger tumour). For the same molecule, the T/C is, setting by setting: (endpoint: median tumor weight (est.), dose: 400.0 mg/kg/injection, schedule: Q01DX009 (ip), vehicle: saline with Tween-80, higher = larger tumour) 97 % of control; (endpoint: median tumor weight (est.), dose: 800.0 mg/kg/injection, schedule: Q01DX009 (ip), vehicle: saline with Tween-80, higher = larger tumour) 91 % of control.

In the case of `Cc1cc(N)c2cc(NC(=O)CCCCCCCCC(=O)Nc3ccc4nc(C)cc(N)c4c3)ccc2n1`, the T/C runs as follows: (endpoint: mean tumor weight, dose: 12.5 mg/kg/injection, schedule: Q01DX011 (ip), vehicle: other, higher = larger tumour) 108 % of control; under setting [1], 61 % of control; (endpoint: mean tumor weight, dose: 100.0 mg/kg/injection, schedule: Q01DX011 (ip), vehicle: other, higher = larger tumour) 38 % of control; (endpoint: median survival time, dose: 0.05 mg/kg/injection, schedule: Q01DX009 (ip), vehicle: Klucel (hydroxypropylcellulose) (HPC), higher = longer survival) 105 % of control; (endpoint: median survival time, dose: 0.1 mg/kg/injection, schedule: Q01DX009 (ip), vehicle: Klucel (hydroxypropylcellulose) (HPC), higher = longer survival) 102 % of control; (endpoint: median survival time, dose: 0.19 mg/kg/injection, schedule: Q01DX009 (ip), vehicle: Klucel (hydroxypropylcellulose) (HPC), higher = longer survival) 100 % of control. Further, the T/C (endpoint: median survival time, dose: 0.38 mg/kg/injection, schedule: Q01DX009 (ip), vehicle: Klucel (hydroxypropylcellulose) (HPC), higher = longer survival) was 105 % of control; the T/C (endpoint: median survival time, dose: 0.75 mg/kg/injection, schedule: Q01DX009 (ip), vehicle: Klucel (hydroxypropylcellulose) (HPC), higher = longer survival) was 92 % of control; the T/C (endpoint: median survival time, dose: 1.5 mg/kg/injection, schedule: Q01DX009 (ip), vehicle: Klucel (hydroxypropylcellulose) (HPC), higher = longer survival) is 96 % of control; the T/C (endpoint: median survival time, dose: 3.0 mg/kg/injection, schedule: Q01DX009 (ip), vehicle: Klucel (hydroxypropylcellulose) (HPC), higher = longer survival) was 92 % of control; the T/C (endpoint: median survival time, dose: 3.12 mg/kg/injection, schedule: Q01DX009 (ip), vehicle: Klucel (hydroxypropylcellulose) (HPC), higher = longer survival) is 94 % of control; the T/C (endpoint: median survival time, dose: 6.25 mg/kg/injection, schedule: Q01DX009 (ip), vehicle: Klucel (hydroxypropylcellulose) (HPC), higher = longer survival) is 104 % of control. In addition, the T/C runs as follows: (endpoint: median survival time, dose: 12.5 mg/kg/injection, schedule: Q01DX009 (ip), vehicle: Klucel (hydroxypropylcellulose) (HPC), higher = longer survival) 105 % of control; (endpoint: median survival time, dose: 100.0 mg/kg/injection, schedule: Q01DX009 (ip), vehicle: Klucel (hydroxypropylcellulose) (HPC), higher = longer survival) 118 % of control.

As for `O=NN(CCCl)C(=O)Nc1ccc(CCCl)cc1`, the T/C by setting is: (endpoint: mean tumor weight, dose: 1.5 mg/kg/injection, schedule: Q01DX001 (ip), vehicle: carboxymethylcellulose (CMC), higher = larger tumour) 91 % of control; (endpoint: mean tumor weight, dose: 3.0 mg/kg/injection, schedule: Q01DX001 (ip), vehicle: carboxymethylcellulose (CMC), higher = larger tumour) 106 % of control; (endpoint: mean tumor weight, dose: 6.0 mg/kg/injection, schedule: Q01DX001 (ip), vehicle: carboxymethylcellulose (CMC), higher = larger tumour) 90 % of control; (endpoint: mean tumor weight, dose: 12.0 mg/kg/injection, schedule: Q01DX001 (ip), vehicle: carboxymethylcellulose (CMC), higher = larger tumour) 52 % of control.

As to `O=[N+]([O-])c1ccc(CSc2ncnc3c2ncn3C2OC(CO)C(O)C2O)cc1` (centres undefined), the T/C was 93 % of control (endpoint: median survival time, dose: 0.3 mg/kg/injection, schedule: Q01DX010 (ip), vehicle: saline with Tween-80, higher = longer survival); 97 % of control (endpoint: median survival time, dose: 3.0 mg/kg/injection, schedule: Q01DX010 (ip), vehicle: saline with Tween-80, higher = longer survival); 106 % of control (endpoint: median survival time, dose: 30.0 mg/kg/injection, schedule: Q01DX010 (ip), vehicle: saline with Tween-80, higher = longer survival).

On to `Cc1nc(N)c(C)c(C(=O)O)n1`, for which the T/C was 113 % of control (endpoint: median survival time, dose: 50.0 mg/kg/injection, schedule: Q01DX009 (ip), vehicle: water, higher = longer survival); 117 % of control (endpoint: median survival time, dose: 100.0 mg/kg/injection, schedule: Q01DX009 (ip), vehicle: water, higher = longer survival); 116 % of control (endpoint: median survival time, dose: 200.0 mg/kg/injection, schedule: Q01DX009 (ip), vehicle: water, higher = longer survival).

For `O=NN(CCCl)C(=O)NC1CCC(O)CC1` (centres undefined), the T/C by setting is: (endpoint: median survival time, dose: 10.0 mg/kg/injection, schedule: Q01DX001 (ip), vehicle: Klucel (hydroxypropylcellulose) (HPC), higher = longer survival) 104 % of control; (endpoint: median survival time, dose: 10.0 mg/kg/injection, schedule: Q01DX001 (ip), vehicle: other, higher = longer survival) 112 % of control and 119 % of control; (endpoint: median survival time, dose: 20.0 mg/kg/injection, schedule: Q01DX001 (ip), vehicle: Klucel (hydroxypropylcellulose) (HPC), higher = longer survival) 105 % of control; (endpoint: median survival time, dose: 20.0 mg/kg/injection, schedule: Q01DX001 (ip), vehicle: other, higher = longer survival) 105 % of control; (endpoint: median survival time, dose: 40.0 mg/kg/injection, schedule: Q01DX001 (ip), vehicle: Klucel (hydroxypropylcellulose) (HPC), higher = longer survival) 186 % of control; (endpoint: median survival time, dose: 40.0 mg/kg/injection, schedule: Q01DX001 (ip), vehicle: other, higher = longer survival) 202 % of control. Moreover, the T/C (endpoint: median survival time, dose: 80.0 mg/kg/injection, schedule: Q01DX001 (ip), vehicle: Klucel (hydroxypropylcellulose) (HPC), higher = longer survival) is 108 % of control.

Consider `CC1(C)N=C(N)N=C(N)N1c1cccc(Br)c1`, for which the T/C under setting [1] is 16 % of control.

Turning to `CC(C)c1ccc(O)c(=O)cc1`, the T/C runs as follows: (endpoint: mean tumor weight, dose: 37.5 mg/kg/injection, schedule: Q01DX011 (ip), vehicle: carboxymethylcellulose (CMC), higher = larger tumour) 52 % of control; (endpoint: mean tumor weight, dose: 75.0 mg/kg/injection, schedule: Q01DX011 (ip), vehicle: carboxymethylcellulose (CMC), higher = larger tumour) 62 % of control.

As for `N=[N+]=CC(=O)CCC(NC(=O)C(CCC(=O)C=[N+]=N)NC(=O)CCC(N)C(=O)O)C(=O)O` (centres undefined), the T/C is, setting by setting: (endpoint: mean tumor weight, dose: 0.06 mg/kg/injection, schedule: Q01DX011 (ip), vehicle: water, higher = larger tumour) 103 % of control; (endpoint: mean tumor weight, dose: 0.12 mg/kg/injection, schedule: Q01DX011 (ip), vehicle: water, higher = larger tumour) 34 % of control; (endpoint: mean tumor weight, dose: 0.25 mg/kg/injection, schedule: Q01DX011 (ip), vehicle: water, higher = larger tumour) 17 % of control; (endpoint: median survival time, dose: 0.1 mg/kg/injection, schedule: Q01DX011 (ip), vehicle: other, higher = longer survival) 120 % of control; (endpoint: median survival time, dose: 0.2 mg/kg/injection, schedule: Q01DX011 (ip), vehicle: other, higher = longer survival) 89 % of control; (endpoint: median survival time, dose: 0.4 mg/kg/injection, schedule: Q01DX011 (ip), vehicle: other, higher = longer survival) 116 % of control. Also, the T/C reads like this: (endpoint: median survival time, dose: 0.8 mg/kg/injection, schedule: Q01DX011 (ip), vehicle: other, higher = longer survival) 107 % of control; (endpoint: median survival time, dose: 1.6 mg/kg/injection, schedule: Q01DX011 (ip), vehicle: other, higher = longer survival) 101 % of control.
